Assay results from patent US7960427B2, “5-hydroxyindole-3-carboxylate derivatives and uses thereof” (priority 2004, dated 2011).
In brackets after ≈: the same amount, converted by molar mass. Counter-ions that a name gives are not always drawn.

Key:
HBV DNA = assay: In vitro anti-HBV activity: replication of HBV DNA in 2.2.15 cells (dot hybridization); assay type: cell-based, Hepatitis B virus (HBV); settings: for IC50: Hepatitis B virus, read-out: DNA replication IC50; for DNA replication SI: selectivity index
Procedure: (§1) All compounds were evaluated for their anti-HBV activities, namely the ability to inhibit the replication of HBV DNA and the production of HBsAg and HBeAg in HBV-infected 2.2.15 cells.
(§2) The samples were dissolved in DMSO for appropriate concentrations, and then each was diluted 3-fold with culture medium. The 2.2.15 cells were planted into 96-well culture plates. […] The culture supernatants and 2.2.15 cells were collected respectively on the 8th plant day. The secretion concentrations of HBsAg and HBeAg in the culture supernatants were measured by RIA on SPRIA Kit for Detection of HBsAg and HBeAg (Beijing North Institute of Biological Technology), and the replication of HBV DNA was measured by dot hybridization with a^32PdCTP (FuRui Biological Technology Ltd., China).

2.2.15 cells = assay: Cytotoxicity (TC50) in 2.2.15 cells; assay type: cell-based
Procedure: as §1, §2

HIV-1 protease = target: T1, HIV-1 protease (Human immunodeficiency virus type 1 group M subtype B, UniProt P04585); assay: Anti-HIV-1 protease activity (fluorescence labeled substrate); assay type: biochemical; settings: for inhibition ratio at 0.5 ug/ml: sample concentration 0.5 ug/ml; for inhibition ratio at 2.0 ug/ml: sample concentration 2.0 ug/ml; for inhibition ratio at 10 ug/ml: sample concentration 10 ug/ml; for inhibition ratio at 50 ug/ml: sample concentration 50 ug/ml; for inhibition ratio at 250 ug/ml: sample concentration 250 ug/ml
T1 construct: The genetically engineered target enzyme (HIV-1 protease, preserved at −85° C.)
Procedure: HIV-1 protease can cut the fluorescence labeled substrate under optimal condition and reaction system, so the activity of enzyme is determined by the fluorescence in the product of enzymatic reaction. The samples are added into the reaction system to observe the inhibitive effect on the enzyme.
The samples and the reference drug Indinavir ([…].) were dissolved in DMSO or redistilled water for appropriate concentration. Each was diluted 5-fold and then added into the buffer containing fluorescence labeled substrate (MP Co.). The genetically engineered target enzyme (HIV-1 protease, preserved at −85° C.) was added to the buffer and incubated under the optimal reaction condition. The fluorescence was determined by FLUO star Galaxy fluorometer.

Structure (SMILES) | IC50 (HBV DNA) [µg/mL] | DNA replication SI (HBV DNA) | TC50 (2.2.15 cells) [µg/mL] | inhibition ratio at 0.5 ug/ml (HIV-1 protease) | inhibition ratio at 2.0 ug/ml (HIV-1 protease) | inhibition ratio at 10 ug/ml (HIV-1 protease) | inhibition ratio at 50 ug/ml (HIV-1 protease) | inhibition ratio at 250 ug/ml (HIV-1 protease) | IC50 (HIV-1 protease) [µM]
CCOC(=O)c1c(CSc2ccc(F)cc2)n(C)c2cc(Br)c(O)c(CN3CCN(C)CC3)c12 [Example 17, Ethyl 6-bromo-5-hydroxy-1-methyl-4-[(4-methyl-1-piperazinyl)methyl]-2-[(4-fluorophenyl)thiomethyl]-1H-indole-3-carboxylate dihydrochloride] | 17.8 | 3.5 | 62.50 | −6.1 | −8.3 | −13.0 | −17.3 | 27.6 | 
CCOC(=O)c1c(CSc2ccc(F)cc2)n(C2CC2)c2cc(Br)c(O)c(CN3CCN(C)CC3)c12 [Example 19, Ethyl 6-bromo-1-cyclopropyl-5-hydroxy-4-[(4-methyl-1-piperazinyl)methyl]-2-[(4-fluorophenyl)thiomethyl]-1H-indole-3-carboxylate dihydrochloride] | 13 | 2.85 | 37.04 | −5.6 | −8.9 | −8.9 | 20.7 | 63.9 | 232
CCOC(=O)c1c(CS(=O)(=O)c2cccc(OC)c2)n(C)c2cc(Br)c(O)c(CN(C)C)c12 [Example 55, Ethyl 6-bromo-4-[(dimethylamino)methyl]-5-hydroxy-1-methyl-2-[(3-methoxyphenyl)sulfonylmethyl]-1H-indole-3-carboxylate] | 2.2 (≈ 4.08 µM) | 9.7 | 21.56 (≈ 40 µM) | 2.1 | 6.7 | 0.1 | 30.5 | 98.0 | 49
CCOC(=O)c1c(C[S+]([O-])c2ccccc2C)n(C)c2cc(Br)c(O)c(CN3CCOCC3)c12 (stereo not shown) [Example 57, Ethyl 6-bromo-5-hydroxy-1-methyl-4-(morpholinomethyl)-2-[(2-methylphenyl)sulfinylmethyl]-1H-indole-3-carboxylate] | 17 (≈ 30.9 µM) | 3.03 | 51.53 (≈ 93.8 µM) | 6.4 | 9.2 | 1.9 | 15.5 | 41.0 | 
CCOC(=O)c1c(C[S+]([O-])c2ccc(F)cc2)n(C)c2cc(Br)c(O)c(CN3CCOCC3)c12 (stereo not shown) [Example 58, Ethyl 6-bromo-5-hydroxy-1-methyl-4-(morpholinomethyl)-2-[(4-fluorophenyl)sulfinylmethyl]-1H-indole-3-carboxylate] | 57.6 (≈ 104 µM) | >8.7 | >500 | 11.7 | 11.6 | 15.9 | 22.9 | 37.4 | 
CCOC(=O)c1c(C[S+]([O-])c2ccc(F)c(F)c2)n(C2CC2)c2cc(Br)c(O)c(CN3CCN(C)CC3)c12 (stereo not shown) [Example 67, Ethyl 6-bromo-1-cyclopropyl-5-hydroxy-4-[(4-methyl-1-piperazinyl)methyl]-2-[(3,4-difluorophenyl)sulfinylmethyl]-1H-indole-3-carboxylate dihydrochloride] | 5.4 | 6.35 | 34.35 | 3.2 | 10.5 | 9.4 | 0.5 | 19.3 | 
CCOC(=O)c1c(C[S+]([O-])c2ccccc2)n(C)c2cc(Br)c(O)c(Cn3ccnc3)c12 (stereo not shown) [Example 116, Ethyl 6-bromo-5-hydroxy-4-[(1-imidazolyl)methyl]-1-methyl-2-(phenylsulfinylmethyl)-1H-indole-3-carboxylate] | 2.56 (≈ 4.96 µM) | 3.17 | 8.12 (≈ 15.7 µM) | 0.4 | −2.4 | −1.5 | 11.1 | 37.5 | 
CCOC(=O)c1c(C[S+]([O-])c2ccc(C)cc2)n(C)c2cc(Br)c(O)c(CNC(=N)N)c12.Cl (stereo not shown) [Example 152, Ethyl 6-bromo-4-(guanidinylmethyl)-5-hydroxy-1-methyl-2-[(4-methylphenyl)sulfinylmethyl]-1H-indole-3-carboxylate hydrochloride] | 10.2 | 18.8 | 192.45 |  |  |  |  |  | 
CCOC(=O)c1c(CS(=O)(=O)Cc2ccco2)n(C2CC2)c2cc(Br)c(O)c(Cn3ccnc3)c12 [Example 162, Ethyl 6-bromo-1-cyclopropyl-5-hydroxy-4-[(1-imidazolyl)methyl]-2-[(2-furylmethyl)sulfonylmethyl]-1H-indole-3-carboxylate] | 51.7 (≈ 92 µM) | 2.48 | 128.30 (≈ 228 µM) |  |  |  |  |  | 
CCOC(=O)c1c(CS(=O)(=O)Cc2ccc(F)cc2)n(C)c2cc(Br)c(O)c(Cn3ccnc3)c12 [Example 163, Ethyl 6-bromo-5-hydroxy-4-[(1-imidazolyl)methyl]-1-methyl-2-[(4-fluorobenzyl)sulfonylmethyl]-1H-indole-3-carboxylate] | 0.68 (≈ 1.2 µM) | 31.45 | 21.39 (≈ 37.9 µM) |  |  |  |  |  | 
CCOC(=O)c1c(CS(=O)(=O)c2ccc(C)cc2)n(C)c2ccc(O)c(Cn3ccnc3)c12 [Example 164, Ethyl 5-hydroxy-4-[(1-imidazolyl)methyl]-1-methyl-2-[(4-methylphenyl)sulfonylmethyl]-1H-indole-3-carboxylate] | 2 (≈ 4.28 µM) | 8.9 | 17.7 (≈ 37.9 µM) |  |  |  |  |  | 
CCOC(=O)c1c(CS(=O)(=O)Cc2ccccc2F)n(C2CC2)c2cc(Br)c(O)c(Cn3ccnc3C)c12 [Example 165, Ethyl 6-bromo-1-cyclopropyl-5-hydroxy-4-[(2-methyl-1-imidazolyl)methyl]-2-[(2-fluorobenzyl)sulfonylmethyl]-1H-indole-3-carboxylate] | 3.14 (≈ 5.19 µM) | 2.47 | 7.76 (≈ 12.8 µM) |  |  |  |  |  | 
CCOC(=O)c1c(CS(=O)(=O)c2ccccc2)n(C)c2cc(Br)c(O)c(Cn3ccnc3C)c12 [Example 166, Ethyl 6-bromo-5-hydroxy-1-methyl-4-[(2-methyl-1-imidazolyl)methyl]-2-(phenylsulfonylmethyl)-1H-indole-3-carboxylate] | 7.53 (≈ 13.8 µM) | 7.09 | 53.42 (≈ 97.8 µM) |  |  |  |  |  | 
CCOC(=O)c1c(CS(=O)(=O)Cc2ccccc2)n(C)c2cc(Br)c(O)c(Cn3ccnc3C)c12 [Example 168, Ethyl 6-bromo-5-hydroxy-1-methyl-4-[(2-methyl-1-imidazolyl)methyl]-2-(benzylsulfonylmethyl)-1H-indole-3-carboxylate] | 7.04 (≈ 12.6 µM) | 5.06 | 35.61 (≈ 63.5 µM) |  |  |  |  |  | 
CCOC(=O)c1c(CS(=O)(=O)Cc2ccccc2)n(C)c2cc(Br)c(O)c(CNC(=N)N)c12 [Example 173, Ethyl 6-bromo-4-(guanidinylmethyl)-5-hydroxy-1-methyl-2-(benzylsulfonylmethyl)-1H-indole-3-carboxylate] | 5.04 (≈ 9.38 µM) | 4.90 | 24.69 (≈ 45.9 µM) |  |  |  |  |  | 
CCOC(=O)c1c(CS(=O)(=O)c2ccc(C(F)(F)F)cc2)n(C)c2cc(Br)c(O)c(Cn3ccnc3C)c12 [Example 180, Ethyl 6-bromo-5-hydroxy-1-methyl-4-[(2-methyl-1-imidazolyl)methyl]-2-[(4-trifluoromethylphenyl)sulfonylmethyl]-1H-indole-3-carboxylate] | 3.56 (≈ 5.79 µM) | 14.43 | 51.36 (≈ 83.6 µM) |  |  |  |  |  | 
CCOC(=O)c1c(C[S+]([O-])Cc2ccccc2F)n(C2CC2)c2cc(Br)c(O)c(Cn3ccnc3C)c12 (stereo not shown) [Example 183, Ethyl 6-bromo-1-cyclopropyl-5-hydroxy-4-[(2-methyl-1-imidazolyl)methyl]-2-[(2-fluorobenzyl)sulfinylmethyl]-1H-indole-3-carboxylate] | 3.45 (≈ 5.86 µM) | 10.74 | 37.04 (≈ 62.9 µM) |  |  |  |  |  | 
CCOC(=O)c1c(C[S+]([O-])Cc2ccc(F)cc2)n(C)c2cc(Br)c(O)c(Cn3ccnc3C)c12 (stereo not shown) [Example 184, Ethyl 6-bromo-5-hydroxy-1-methyl-4-[(2-methyl-1-imidazolyl)methyl]-2-[(4-fluorobenzyl)sulfinylmethyl]-1H-indole-3-carboxylate] | 0.94 (≈ 1.67 µM) | 56.83 | 53.42 (≈ 95 µM) |  |  |  |  |  | 
CCOC(=O)c1c(CS(=O)(=O)Cc2ccc(F)cc2)n(C)c2cc(Br)c(O)c(Cn3ccnc3C)c12 [Example 185, Ethyl 6-bromo-5-hydroxy-1-methyl-4-[(2-methyl-1-imidazolyl)methyl]-2-[(4-fluorobenzyl)sulfonylmethyl]-1H-indole-3-carboxylate] | 1.3 (≈ 2.25 µM) | 9.5 | 12.35 (≈ 21.3 µM) |  |  |  |  |  | 
